{"source": "paper PMC9108603", "about": "“Microbial Metabolite Inspired β‐Peptide Polymers Displaying Potent and Selective Antifungal Activity” (Advanced Science, 2022)", "key": {"[1]": {"system": "C. albicans and C. neoformans", "assay": "MIC/MFC, summary over all fungal strains", "assay_type": "cell-based, Candida albicans, Cryptococcus neoformans", "procedure": "(§1) In vitro antifungal assays. The MIC assays for C. albicans (K1, SC5314, Gu5, ATCC90028, R01, R02, R03 and R04 strains) and C. neoformans (H99, MYA737 and JEC21 strains) were conducted according to a previously described protocol. The cultured fungal cells were collected at 2.5 × 10^3 CFU/mL in RPMI 1640 medium to give the working suspension. Two- […]\n(§2) plate to give 50 µL compound solution in each well. Then 50 µL of the cell suspension was added to each well. Wells containing cells in RPMI without any polymer or antifungal drug were used as drug-free controls, and wells containing RPMI medium only were used as cell-free controls. The plate was gently stirred for 10 seconds and then incubated at 30 °C. After C. albicans and C. neoformans cells were incubated for 24 h and 48 h, respectively, fungal cell growth was checked visually. The MIC values were identified as the lowest concentration […]\nC. albicans . The MFC assay for Candida and Cryptococcus was conducted after the MIC test.\nAn aliquot of 3 µL premixed suspension from each well was plated on the yeast extract-peptone-dextrose (YPD) agar. The plates were incubated at 30 °C for 24 h and 48 h, respectively, for C. albicans cells and C. neoformans cells. Then the plate was inspected visually for colony formation. […]"}, "C. albicans": {"system": "C. albicans", "assay": "MIC assay (in vitro antifungal assay)", "assay_type": "cell-based, Candida albicans", "details": "for MIC: Candida albicans", "procedure": "as §1\nas §2, with “Then” for “plate to give 50 µL compound solution in each well. Then”, “visually.” for “visually. The MIC values were identified as the lowest concentration”"}, "C. albicans SC5314": {"system": "C. albicans SC5314", "assay": "Biofilm-induced fungal keratitis model", "assay_type": "in vivo, mouse (male BALB/c)", "details": "10 μL every 5 min for 1 h, then every 30 min for 7 h, versus saline, n = 10", "procedure": "Medicine (Accreditation number of the laboratory: SHDSYY-2021-1729). The experiment […]\nmethod. […] AmpB was\n(2.5% DMSO in final solution).\nThe organs (kidney, liver, and\n14th day for histological analysis and blood biochemistry analysis.\n30 min during the next 7 h.\nC. albicans biofilm formation on contact lenses. The contact lenses (Biomedic ®, Cooper […]\nThen the discs were transferred to a […]\nand incubated at rt with shaking at 100 rpm. After 6 hours of incubation, the suspension was […]\naddition of 150 μL fresh RPMI medium into each well. […]\nAll mice were killed and the eyeballs of each mouse were collected immediately 30 min after the administration of the last eye drop. Ten eyeballs from each group were homogenized for quantitative analysis of fungal counts with the number of CFUs expressed as mean log (CFU per eye), and the remaining four eyeballs were collected for histological analysis. […]\nAfter incubation for 24 h at 30 °C, the colonies were counted and the number of CFUs was […]\nexpressed as mean log 10 (CFU per eye). […]\nStatistical Analysis. […] Significance between two groups was determined by two-tailed t-test. […] All results were expressed as mean values ± s.d. n = 3 for each in vitro statistical analysis. n = 8 or 10 for each in vivo statistical analysis. […]"}, "ICR mice": {"system": "ICR mice", "assay": "In vivo acute toxicity, single IV injection", "protocol": "In vivo acute toxicity. All animal procedures were performed in accordance with the\nGuidelines for Care and Use of Laboratory Animals of the Shanghai Tenth People’s Hospital\n(License number: SYXK( 沪)-2021-0012), and experiments were approved by the Animal\nEthics Committee of the Shanghai Tenth People’s Hospital, Tongji University School of\nwas performed on 6-weeks old female ICR mice (n = 10) using the previously reported\nprepared in DMSO and further diluted into sterile saline to a final concentration of 0.3 mg/mL\nand 3 mg/kg, respectively, and mice injected with saline were used as controls. After a single\ninjection, all survival mice were weighed daily for 14 days. The organs (kidney, liver, and\nspleen) (n = 2) and blood of mice treated by PDAP 20 or saline (n = 8) were collected on the"}, "C. albicans (R02 strain)": {"system": "C. albicans (R02 strain)", "assay": "microbe, parasite or virus in culture", "assay_type": "cell-based, Candida albicans", "details": "C. albicans R02; 0.5 × MIC of PDAP20 or 0.5 × MIC50 of fluconazole; 30 passages; duplicates", "procedure": "Drug resistance studies. Drug resistance was induced by treating the C. albicans (R02 strain) repeatedly with antifungal agents. […]\nalbicans were tested for 30 passages of growth, which is long enough and adopted by many studies. C. albicans exposed to the 1/2 MIC concentration at the particular passage were re-grown to a logarithmic growth phrase and re-used for the subsequent passage’s MIC measurement for the same antifungal agent. Drug-resistant behavior of C. albicans was evaluated by recording the changes in the MIC compared to the original passage. All measurements were performed in duplicates. […]"}, "[2]": {"system": "mature C. albicans biofilms", "assay": "Eradication of mature biofilm (MTT)", "assay_type": "cell-based, Candida albicans", "details": "48 h biofilm, then 48 h treatment at 37 °C"}}, "note": "Where two headings read alike, the source gives them in different places.", "data": [{"compound": "C[C@@H]1[C@H](O)[C@@H](C)/C=C/C=C/C=C/C=C/C=C/C=C/C=C/[C@H](O[C@@H]2O[C@H](C)[C@@H](O)[C@H](N)[C@@H]2O)C[C@@H]2O[C@](O)(C[C@@H](O)C[C@@H](O)[C@H](O)CC[C@@H](O)C[C@@H](O)CC(=O)O[C@H]1C)C[C@H](O)[C@H]2C(=O)O", "note": "[AmpB, amphotericin B]", "values": [{"measurement": "MIC against all strains of C. albicans and C. neoformans (range)", "setting": "[1]", "value": "1.2 to 3.1", "unit": "µg/mL"}, {"measurement": "MIC", "setting": "C. albicans; 24 h, read-out: MIC C. albicans R01", "value": 1.2, "unit": "µg/mL"}, {"measurement": "MIC", "setting": "C. albicans; 24 h, read-out: MIC C. albicans R04", "value": 1.6, "unit": "µg/mL"}, {"measurement": "MIC", "setting": "C. albicans; ATCC90028, 24 h, read-out: MIC C. albicans ATCC90028", "value": 1.6, "unit": "µg/mL"}, {"measurement": "MIC", "setting": "C. albicans; SC5314, 24 h, read-out: MIC C. albicans SC5314", "value": 1.6, "unit": "µg/mL"}, {"measurement": "Reduction of colonies, log CFU per eye", "setting": "C. albicans SC5314; AmpB 1 mg mL^−1 eye drops", "value": 1.8, "unit": "log CFU per eye"}, {"measurement": "Mice died within 48 h", "setting": "ICR mice; single IV dose of 3 mg kg^−1, ICR mice, n = 10", "value": 90, "unit": "%"}]}, {"compound": "poly(DL‐diaminopropionic acid) [PDAP20]", "values": [{"measurement": "MIC against all strains of C. albicans and C. neoformans (range)", "setting": "[1]", "value": "0.1 to 0.8", "unit": "µg/mL"}, {"measurement": "MIC at high fungal cell concentration (TEM conditions)", "setting": "C. albicans; 1.0 × 10^8 CFU mL^−1, fungal species not stated at the place", "value": 50, "unit": "µg/mL"}, {"measurement": "MIC at high fungal cell concentration (other mechanism experiments)", "setting": "C. albicans; 3.0 × 10^6 CFU mL^−1, fungal species not stated at the place", "value": 12.5, "unit": "µg/mL"}, {"measurement": "Effect of increasing K+ on antifungal activity", "setting": "C. albicans; K+ up to 20 × 10^−3 M, C. albicans K1", "value": "didn't affect"}, {"measurement": "MIC C. albicans K1, standard MIC test in RPMI 1640", "setting": "C. albicans; Na+ 103 mM, K+ 5.4 mM", "value": 0.8, "unit": "µg/mL"}, {"measurement": "MIC C. albicans K1, K+ ↑", "setting": "C. albicans; Na+ 103 mM, K+ 10 mM", "value": 0.8, "unit": "µg/mL"}, {"measurement": "MIC C. albicans K1, K+ ↑", "setting": "C. albicans; Na+ 103 mM, K+ 20 mM", "value": 0.8, "unit": "µg/mL"}, {"measurement": "MIC C. albicans K1, physiological salt concentration", "setting": "C. albicans; Na+ 150 mM, K+ 5.4 mM", "value": 1.6, "unit": "μg/mL"}, {"measurement": "MIC C. albicans K1, Na+ ↑", "setting": "C. albicans; Na+ 200 mM, K+ 5.4 mM", "value": 3.1, "unit": "µg/mL"}, {"measurement": "MIC C. albicans K1, Na+ ↑", "setting": "C. albicans; Na+ 300 mM, K+ 5.4 mM", "value": 6.3, "unit": "µg/mL"}, {"measurement": "MIC C. albicans K1, Na+ ↑, K+ ↑", "setting": "C. albicans; Na+ 300 mM, K+ 20 mM", "value": 6.3, "unit": "µg/mL"}, {"measurement": "MIC C. albicans K1 on increase of Na+ (range)", "setting": "C. albicans; Na+ from 150 × 10^−3 to 300 × 10^−3 M", "value": "1.6 to 6.3", "unit": "µg/mL"}, {"measurement": "Development of drug resistance on continuous treatment", "setting": "C. albicans (R02 strain)", "value": "didn't acquire resistance"}, {"measurement": "Reduction of colonies, log CFU per eye", "setting": "C. albicans SC5314; PDAP20 15 mg mL^−1 eye drops", "value": 1.2, "unit": "log CFU per eye"}, {"measurement": "Concentration that eradicates mature biofilms (SMIC80)", "setting": "[2]", "value": 50, "unit": "µg/mL"}, {"measurement": "Survival after IV injection", "setting": "ICR mice; single IV dose of 100 mg kg^−1, ICR mice, n = 10, 14 days", "value": "all mice survived"}, {"measurement": "Body weight", "setting": "ICR mice; single IV dose of 100 mg kg^−1, daily for 14 days, n = 10", "value": "normal body weight compared to the saline group"}, {"measurement": "H&E histology of kidney, liver and spleen", "setting": "ICR mice; single IV dose of 100 mg kg^−1, day 14, n = 2", "value": "no obvious toxicity on major organs"}, {"measurement": "Blood biochemistry (K+, Na+, ALT, AST, BUN, CREA)", "setting": "ICR mice; single IV dose of 100 mg kg^−1, day 14, n = 8", "value": "did not cause significant changes in blood biochemical indicators"}]}]}
